According to publication PMC3906007, “Discovery of a Small Molecule Agonist of Phosphatidylinositol 3-Kinase p110α That Reactivates Latent HIV-1” (PLoS ONE, 2014):
Like-named read-outs stand apart in the source and are kept apart here.

Columns and labels:
[1] = Cytotoxicity (MTT or CellTiter 96), Jurkat; format: cell-based; conditions: human, Jurkat cells; 24 hour incubation; mean ± SD, 3 replicates
Procedure: (§1) Following a 24 hour incubation period, cell viability was measured using either the MTT (Roche Applied Science, Indianapolis, IN) or CellTiter 96 proliferation (Promega, WI) assay.

[2] = Cytotoxicity (MTT or CellTiter 96), CD8+-depleted MNC; format: cell-based; conditions: human, CD8+-depleted mononuclear cells (MNC) from whole blood; 24 hour incubation; mean of 2 replicates
Procedure: as §1
(§2) CD8+T-cells were depleted from whole blood using RosetteSep Human CD8 Depletion Cocktail (StemCell Technologies, Vancouver, BC) according to manufacturer's instructions. 2×10^6 CD4^+ MNC cells were seeded in triplicate per treatment in 48-well plates and allowed to rest overnight. All wells were maintained in 81 nM efavirenz. […] Activation controls were treated with CD3/CD28 Dynabeads (Life Technologies, Grand Island, NY). After 7 days of incubation, supernatants from triplicate wells were pooled, centrifuged (500 g×5 min), and stored at −80°C. HIV-1 RNA levels in supernatants were determined using the COBAS® AmpliPrep/COBAS® TaqMan® HIV-1 Test, v2.0 (Roche, Indianapolis, IN).

[3] = system: latent HIV-1 in CD8+-depleted MNC; format: cell-based; conditions: for Copies HIV RNA/mL: 7 days
Excerpt: Healthy HIV-1 uninfected blood donors and HIV-1-infected donors on suppressive cART with plasma HIV-1 RNA less than 50 copies/mL for >2 year provided written informed consent and underwent a large volume phlebotomy (100–200 mLs). The protocol for blood donation was approved by the Institutional Review Board of the University of Pittsburgh (IRB #PRO10070203).
as §2, with “overnight.” for “overnight. All wells were maintained in 81 nM efavirenz.”

purified T cells = assay: Global T cell activation (surface expression of CD69, CD38 and HLA-DR); format: cell-based; conditions: different concentrations, up to 5 days
Excerpt: Peripheral blood MNC were obtained from the blood of healthy donors by Ficoll-Paque PLUS (GE Healthcare, Piscataway, NJ) density gradient centrifugation. T cells were isolated using the Pan T Cell Isolation kit (Miltenyi Biotec, Auburn, CA) according to manufacturer's instruction. Briefly, non-T cells were depleted from the MNC using biotin-conjugated antibodies to CD14, CD15, CD16, CD19, CD34, CD36, CD56, CD123, and CD235a and anti-biotin-labeled magnetic beads. […] Cells were then washed twice with PBS, resuspended in PBS with 4% PFA and stored in the refrigerator until analysis. Samples were analyzed on a BD LSRII flow cytometer and analyzed using FACsDiva software (BD Biosciences, Mountain View, CA). Forward versus side scatter plot was used to define the live cell population and fluorescence gates were set based on isotype control fluorescence.

PI3K p110α RNA = assay: PI3K isoform RNA transcript levels in J89GFP cells, p110α; format: cell-based; conditions: 5 µM
PI3K p110β RNA = format: cell-based; conditions: J89GFP cells; 5 µM
PI3K p110δ RNA = assay: PI3K isoform RNA transcript levels in J89GFP cells, p110δ; format: cell-based; conditions: 5 µM
PI3K p110γ RNA = assay: PI3K isoform RNA transcript levels in J89GFP cells, p110γ; format: cell-based; conditions: 5 µM
HDAC8 = target: T1, HDAC8 (Homo sapiens, UniProt Q9BY41); assay: Fluorogenic HDAC activity assay, HDAC8; format: biochemical
T1 construct: purchased BPS Bioscience (San Diego, CA)
T1 sequence (Q9BY41 1-377): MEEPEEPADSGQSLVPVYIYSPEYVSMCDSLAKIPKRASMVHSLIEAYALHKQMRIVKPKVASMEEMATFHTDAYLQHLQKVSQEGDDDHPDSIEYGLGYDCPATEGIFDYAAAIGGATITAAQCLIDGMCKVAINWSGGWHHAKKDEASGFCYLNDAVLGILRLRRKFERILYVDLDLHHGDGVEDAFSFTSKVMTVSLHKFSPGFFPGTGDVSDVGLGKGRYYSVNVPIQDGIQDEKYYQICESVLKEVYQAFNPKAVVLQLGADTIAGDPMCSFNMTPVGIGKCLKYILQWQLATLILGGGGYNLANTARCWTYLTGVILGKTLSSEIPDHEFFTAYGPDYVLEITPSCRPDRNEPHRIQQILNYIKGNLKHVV
Procedure: The lysine deacetylase activity of HDACs 1, 2, 3, and 8 was assessed using the Fluorogenic HDAC Assay (BPS Bioscience, San Diego, CA) according to the manufacturer's instructions. […] All assays were carried out under steady-state conditions and the assay read-out was optimized for linearity both as a function of time and enzyme concentration. The formation of the fluorescent product was measured using a SpectraMax M2 Plate Reader (Molecular Devices, CA). The excitation and emission wavelengths were 360 nm and 450 nm, respectively.

## COc1cc2c(cc1OC)-c1c(OC)c(OC)cc3ccnc(c13)C2=O [Compound 57704, 1,2,9,10-tetramethoxy-7H-dibenzo[de,g]quinolin-7-one]
[1]
  CC50 at 24 h: 92.9 ± 7.5 µM
[2]
  CC50 at 24 h: 80 µM
[3]; 5 µM 57704, mean of 4 donors
  Increase of HIV-1 RNA in culture supernatants compared to the control: ~4 fold
[3]; 4 donors on suppressive cART tested
  CD8+-depleted blood mononuclear cell preparations (donors) with increased HIV-1 expression: 3 of 4
[3]; donor 1, 1 µM 57704, control 96
  Copies HIV RNA/mL: 0 copies/mL
[3]; donor 1, 5 µM 57704, control 96
  Copies HIV RNA/mL: 389 copies/mL
[3]; donor 2, 1 µM 57704, control 0
  Copies HIV RNA/mL: 79 copies/mL
[3]; donor 2, 5 µM 57704, control 0
  Copies HIV RNA/mL: 35 copies/mL
[3]; donor 3, 1 µM 57704, control 0
  Copies HIV RNA/mL: 10 copies/mL
[3]; donor 3, 5 µM 57704, control 0
  Copies HIV RNA/mL: 0 copies/mL
[3]; donor 4, 1 µM 57704, control 20
  Copies HIV RNA/mL: 20 copies/mL
Purified T cells
  Surface expression of CD69, CD38 and HLA-DR: did not up-regulate
PI3K p110α RNA
  Effect on PI3K p110α RNA transcript levels: no effect
PI3K p110β RNA
  Decrease of PI3K p110β RNA levels: ~2 fold
PI3K p110δ RNA
  Effect on PI3K p110δ RNA transcript levels / gene expression: no effect
PI3K p110γ RNA
  Effect on PI3K p110γ RNA transcript levels: no effect
HDAC8
  IC50: > 50 µM
